We go through two molecules from US20190070159A1, “NOVEL PHARMACEUTICAL USES” (TAKEDA PHARMACEUTICAL COMPANY LIMITED, priority 2015, published 2019).

In data set [1] the test system is non-erosive reflux disease (NERD). Conditions: NERD patients, cited from earlier work.
Data set [2] relates to gastric acid secretion. Briefly: 24-hour gastroesophageal pH monitoring, phase 3 study in PPI-resistant EE patients. Format: in vivo, human. On the procedure: (§1) This was a phase 3, randomized, double-blind, parallel-group, multicenter study to evaluate the dose-response relationships of the acid-inhibitory effect and efficacy of TAK-438 (20 mg and 40 mg) in patients with PPI-resistant EE of LA Classification Grades A to D.
(§2) A patient with PPI-resistant EE was defined as a patient who had EE of LA Classification Grades A to D endoscopically confirmed at the examination in the run-in period after receiving a regular or higher PPI dose for at least 8 weeks until immediately before the start of the run-in period. This study consisted of a 7- to 14-day run-in period and an 8-week treatment period. Subjects who entered the run-in period orally received 1 capsule of the PPI lansoprazole 30 mg once daily after breakfast for at least 7 days, but not more than 14 days. As a rule, subjects underwent endoscopic examination 2 days before the end of the run-in period, after receiving the study medication for the run-in period for at least 5 days. The acid-inhibitory effect of the study medication during the run-in period was evaluated by monitoring gastroesophageal pH for 24 hours, beginning from the day before the end of the run-in period. The subject was then randomized at a 1:1 ratio to receive either TAK-438 20 mg or 40 mg and entered the treatment period. Subjects orally received the assigned medications once daily after breakfast for 8 weeks from the day after the end of the run-in period.
Efficacy: The primary endpoint was the time course of gastroesophageal pH changes over 24 hours at steady state in the treatment period. The primary measure was gastric and esophageal pH 4 holding time ratios (HTRs). Other measures were gastric and esophageal pH 1, 2, 3, 5, 6, and 7 HTRs, mean gastric pH, and mean esophageal pH.

In data set [3] the test system is PPI-resistant EE of LA Classification Grades A to D. Briefly: EE healing rate after 8-week treatment, phase 3 study in PPI-resistant EE patients. Format: in vivo, human. As for the experimental part:
as §1, §2
Subject eligibility for this study required that the subject had received a regular or higher dose of PPI for EE treatment for at least 8 weeks until immediately before the start of the run-in period. In addition, the subject had EE for which a regular or higher dose of PPI had not been effective, or more specifically, the subject had EE of LA Classification Grades A to D endoscopically confirmed at the examination in the run-in period.
The secondary endpoint was the EE healing rate after 8-week treatment with TAK-438.

Data set [4] in a line: Safety and tolerability, phase 3 study in PPI-resistant EE patients. It is filed as in vivo, human. Conditions: subjects with PPI-resistant EE of LA Grades A to D, 20 mg or 40 mg for 8 weeks. As for the experimental part:
as §1
as §2, with “Subjects orally received the assigned medications once daily after breakfast for 8 weeks from the day after the end of the run-in period.” left out

Data set [5] deals with GERD symptoms (heartburn and acid regurgitation). Briefly: Clinical study in PPI partial responders (NERD and LA grade A EE), symptom diary. Format: in vivo, human. To be noted: TAK-438 20 mg QD or 40 mg QD for 4 weeks. As for the experimental part:
A study is held to evaluate TAK-438 (20 mg QD and 40 mg QD) in subjects who have a history of heartburn-predominant GERD despite an adequate course of PPI treatment and who are then confirmed to have a partial response to a 4-week treatment course with a PPI (esomeprazole 40 mg QD).
Subjects are eligible for participation in the study if they: • have a documented history of symptoms of both heartburn and acid regurgitation prior to entry into the study; • have a history of heartburn-predominant GERD despite an adequate course of PPI treatment; • continue to have symptoms of heartburn (with or without regurgitation) following 4 weeks treatment with a high dose of esomeprazole 40 mg QD; • have symptoms of heartburn (with or without regurgitation) which increase following a 2-week washout period compared with the prior 4 week course of high dose esomeprazole 40 mg QD.
The subjects entered into the study are NERD and mild (LA grade A, as defined by the Los Angeles Classification) erosive esophagitis (EE). […]

Data set [6] relates to gastric acid secretion. To be noted: rats, versus the PPI lansoprazole; cited from earlier work.
Another data set deals with erosive esophagitis (EE). To be noted: patients with erosive esophagitis; cited from earlier work.
The test system of a further data set is pH holding time. Conditions: cited from earlier work.
Where [7] appears, read: TAK-438 20 mg once daily, after 2 weeks, subjects with PPI-resistant EE.
[8] abbreviates: TAK-438 40 mg once daily, after 2 weeks, subjects with PPI-resistant EE.
The mark [9] stands for this setting: both treatment groups (20 mg and 40 mg), after 2 weeks.

SMILES strings stand for the structures.

Take `Cc1cccc(C)c1CNc1cc(C(=O)NCCO)cn2c(C)c(C)nc12` [AZD0865]: the “clinical benefit over esomeprazole in treatment of NERD symptoms” value in data set [1] (4 weeks) is on record as “did not provide clinical benefit over esomeprazole”. Besides, in data set [1], the duration of effect entry is on record as “prolonged, dose-dependent duration of effect” and the “inhibition of acid production” value is “rapid inhibition of acid production”.

Take `CNCc1cc(-c2ccccc2F)n(S(=O)(=O)c2cccnc2)c1.O=C(O)/C=C/C(=O)O` [TAK-438, 1-[5-(2-fluorophenyl)-1-(pyridin-3-ylsulfonyl)-1H-pyrrol-3-yl]-N-methylmethanamine]: in the data set with gastric acid secretion [2] (setting [7]), the “mean 24-hour esophageal pH 4 HTR” value was 98.41% and the “mean 24-hour gastric pH 4 HTR” value is 96.46%. The “effect on gastric acid secretion” value with gastric acid secretion [2] (TAK-438 20 mg or 40 mg, nighttime as well as daytime, subjects with PPI-resistant EE) is on record as “suppressed gastric acid secretion”. Moreover, in the data set on gastric acid secretion [2] (setting [8]), the “mean 24-hour esophageal pH 4 HTR” value is given as 99.86% and the “mean 24-hour gastric pH 4 HTR” value stood at 100.00%. Moreover, the “increases in gastric and esophageal pH 4 HTRs, 40 mg versus 20 mg group” value in the data set on gastric acid secretion [2] (after 2 weeks, differences between groups not statistically significant) was “greater in the TAK-438 40 mg group than in the TAK-438 20 mg group”. Moreover, in the data set with gastric acid secretion [2] (setting [9]), the “mean 24-hour esophageal pH 1, 2, 3, 6, and 7 HTRs, change from baseline” value is recorded as “remained almost unchanged”; the “mean 24-hour esophageal pH 5 HTR, change from baseline” value is listed as “slightly increased”; the “mean 24-hour gastric pH 2, 3, 5, 6, and 7 HTRs, change from baseline” value is “increased from baseline”. The “mean 24-hour gastric pH 1 HTR” value in the data set with gastric acid secretion [2] (both treatment groups (20 mg and 40 mg), after 2 weeks of TAK-438, baseline also 100.00%) came to 100.00%. Moreover, the “mean gastric pH, change from baseline” value in the data set with gastric acid secretion [2] (both treatment groups, 12-hour and 24-hour periods) was “increased from baseline”. In addition, the “mean gastric pH 4 HTRs during daytime and nighttime” value in the data set on gastric acid secretion [2] (both treatment groups, changes greater during nighttime than daytime) was “increased during both the daytime and nighttime with statistical significance”. The “mean esophageal pH, change from baseline” value with gastric acid secretion [2] (both treatment groups, lesser extent than mean gastric pH) is given as “also increased”. Besides, the “significance of increase from baseline in 24-hour gastric pH 4 HTR” value in the data set with gastric acid secretion [2] (both treatment groups, lower limits of 95% CI of mean changes greater than 0) is given as “statistically significant”. Further, in the data set with gastric acid secretion [2] (either treatment group (20 mg, 40 mg)), the “significance of change from baseline in 24-hour esophageal pH 4 HTR” value is “not statistically significant”. Moreover, the “EE healing rate after 8-week treatment” value in data set [3] (TAK-438 20 mg group, 4 out of 9 subjects) was 44.4%. Besides, the “EE healing rate after 8-week treatment” value in data set [3] (TAK-438 40 mg group, 5 out of 9 subjects) amounted to 55.6%. Besides, the overall efficacy result in data set [3] (subjects with PPI-resistant EE of LA Grades A to D, 20 mg or 40 mg) was “effective”. Also, the safety and tolerability entry in data set [4] was “safe, and well tolerated”. Further, in data set [5], the “heartburn and/or regurgitation symptoms” value was “can reduce heartburn and/or regurgitation symptoms throughout the whole day and night”; the “percentage of heartburn-free days and nights (24-hour periods)” value is “can increase the percentage of heartburn-free days and nights”. Also, the “inhibitory action on gastric acid secretion compared with lansoprazole” value with gastric acid secretion [6] was “more potent and longer-lasting”. In addition, the “efficacy in treatment of EE and maintenance of EE healing” value with erosive esophagitis (EE) was “effective for the treatment of EE and maintenance of EE healing”. In addition, the “time to near maximal effect on pH holding time” value in the data set on pH holding time (after dosing, maintained with chronic dosing) is listed as ≤ 24 hours. For the same molecule, the onset of action entry in the data set on pH holding time (after the first dose, single and multiple repeat-dosing studies) is “rapid onset of action after the first dose”.
